# Experimental data taken from BindingDB's records for doi:10.1016/j.ejmech.2019.07.019 (Isf College of Pharmacy, 2019).
# How the values were obtained:
# [1] = Inhibition of HIV1 3B Y181C mutant infected in human MT2 cells assessed as reduction in virus-induced cytopathogenicity after 3 days by BrightGlo luciferase reporter gene assay
# [2] = Inhibition of HIV1 reverse transcriptase Y181C/K103N double mutant infected in human MT4 cells assessed as reduction in virus-induced cytopathogenicity
SMILES,IC50 [1],IC50 [2]
CCCCC(O)(c1c(NC(=O)OCC)[nH]c2ccc(Br)cc12)C(F)(F)F (configuration not stated),1.93 µM,–
COP(=O)(c1cc(C)cc(/C=C/C#N)c1)c1c(C(N)=O)[nH]c2ccc(Cl)cc12 (configuration not stated) [IDX899],–,11 µM
